Source: article PMC3628110, “Mechanism for priming DNA synthesis by yeast DNA Polymerase α” (eLife, 2013)
Substitutions are numbered along the chain they refer to.

Legend:
[1] = molecular target: T1, Pol α (catalytic core, 349–1258) (Saccharomyces cerevisiae, UniProt P13382, R508A/N509A/D998N); experiment: X-ray crystal structure of ternary complex, […] Å; format: binding; details: RNA 10mer primer/DNA 25mer template; 5 mM dGTP; 200 mM Mg acetate; polymerase active site; primer extended by dGMP during crystallization (mass spectrometry)
T1 construct: gene POL1; catalytic core, residues 349-1258 (910 aa); N-terminal dual His/Strep tag, TEV-cleaved; E. coli BL21(DE3)Rosetta2
T1 sequence (P13382 349-1258 R508A/N509A/D998N): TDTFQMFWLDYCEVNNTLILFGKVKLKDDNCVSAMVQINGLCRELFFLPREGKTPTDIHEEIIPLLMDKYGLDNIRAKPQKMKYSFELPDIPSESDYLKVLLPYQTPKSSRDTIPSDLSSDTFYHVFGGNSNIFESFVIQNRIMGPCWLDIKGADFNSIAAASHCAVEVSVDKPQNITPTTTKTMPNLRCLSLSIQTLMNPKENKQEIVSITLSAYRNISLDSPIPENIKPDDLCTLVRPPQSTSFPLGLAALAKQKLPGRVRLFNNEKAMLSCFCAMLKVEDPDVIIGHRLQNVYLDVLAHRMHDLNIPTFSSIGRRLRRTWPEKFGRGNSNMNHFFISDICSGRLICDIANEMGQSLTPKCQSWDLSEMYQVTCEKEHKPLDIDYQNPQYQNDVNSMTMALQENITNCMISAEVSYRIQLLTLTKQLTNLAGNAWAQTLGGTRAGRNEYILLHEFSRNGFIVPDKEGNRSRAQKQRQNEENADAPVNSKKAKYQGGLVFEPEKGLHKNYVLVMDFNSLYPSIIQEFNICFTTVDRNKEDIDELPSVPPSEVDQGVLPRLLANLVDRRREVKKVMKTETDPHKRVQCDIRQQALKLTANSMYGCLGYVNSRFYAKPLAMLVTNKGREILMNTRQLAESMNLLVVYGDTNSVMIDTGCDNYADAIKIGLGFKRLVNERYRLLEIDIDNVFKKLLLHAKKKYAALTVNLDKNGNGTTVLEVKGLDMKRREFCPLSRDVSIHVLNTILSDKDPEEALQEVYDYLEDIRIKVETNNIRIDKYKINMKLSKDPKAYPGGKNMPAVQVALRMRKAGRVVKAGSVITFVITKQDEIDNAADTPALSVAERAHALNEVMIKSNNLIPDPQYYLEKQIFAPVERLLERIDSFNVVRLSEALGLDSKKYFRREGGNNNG

[2] = molecular target: T1, Pol α (catalytic core, 349–1258); experiment: primer extension assay, denaturing gel; format: biochemical; details: labelled compound ([α-32P]dATP); poly(dT) 70mer template; up to 10 μM protein; 90 s
[3] = molecular target: T2, DNA polymerase alpha catalytic core (Pol α), wild type (Saccharomyces cerevisiae, UniProt P13382 349-1258); experiment: X-ray crystallography (3.0 Å); 10 mM MgCl2, 1 mM ddCTP in drop (no ddCTP density); Crystals only: binary 0.1 M Bicine pH 8.0, 12% PEG 3350, 10 mM MgCl2, 18 °C; ternary 200 mM Mg acetate, 10% PEG 8000, 5 mM dGTP, micro-batch (3% glycerol). Primer extension assays are turnover only and not listed.; details: protein: recombinant; tags: N-terminal dual His/streptavidin tag, TEV-cleaved; 5' overhang 6 nt on template; 10 bp
T2 sequence: T1 sequence (P13382 349-1258 R508A/N509A/D998N) with A160R, A161N, N650D

[4] = molecular target: T3, DNA polymerase alpha catalytic core (Pol α), R508A N509A D998N (Saccharomyces cerevisiae, UniProt P13382 349-1258, R508A;N509A;D998N); experiment: X-ray crystallography (3.1 Å); dGTP (5 mM) bound in active site; 200 mM Mg acetate; Crystals only: binary 0.1 M Bicine pH 8.0, 12% PEG 3350, 10 mM MgCl2, 18 °C; ternary 200 mM Mg acetate, 10% PEG 8000, 5 mM dGTP, micro-batch (3% glycerol). Primer extension assays are turnover only and not listed.; details: protein: recombinant; tags: N-terminal dual His/streptavidin tag, TEV-cleaved; 5' overhang 13 nt on template after extension (15 nt before); 12 bp
T3 sequence: T1 sequence (P13382 349-1258 R508A/N509A/D998N)

Nc1nc2c(ncn2[C@H]2C[C@H](O)[C@@H](COP(=O)(O)OP(=O)(O)OP(=O)(O)O)O2)c(=O)[nH]1 [dGTP]
X-ray crystal structure of ternary complex, 3.1 Å [1]: the R508A, N509A, D998N Pol α mutant was used

Nc1ncnc2c1ncn2[C@H]1C[C@H](O)[C@@H](COP(=O)(O)OP(=O)(O)OP(=O)(O)O)O1 [dATP]
primer extension assay, denaturing gel [2]: Residual activity of the D998N R508A N509A Pol α mutant was demonstrated by the primer extension assay

B1: RNA 10mer primer / DNA 16mer template (binary complex) (DNA:RNA)
?: AGGCGGGCAG
DNA: TTTTCGCTGCCCGCCT
modifications: strand 1 RNA, strand 2 DNA
binding result [3]: binds

B2: RNA 10mer primer extended in crystal by two dG / DNA 25mer template (ternary complex) (DNA:RNA)
?: CGGCGGGCAGGG
DNA: TGAGCGTGTGTACCCCTGCCCGCCG
modifications: strand 1 is RNA 10mer (S5) plus two 3' deoxyguanosines; strand 2 DNA
binding result [4]: binds
